Measurements reported in patent US20220213126A1, “SMALL MOLECULE AUTOPHAGY INDUCERS FOR THE TREATMENT OF CANCER AND NEURODEGENERATIVE DISEASES” (John Wayne Cancer Institute, priority 2019, published 2022).
pIC50: −log10 of the molar value. Where “and” joins values, the source holds several entries; their conditions need not be identical. Identical values can stand only once. Like-named read-outs stand apart in the source and are kept apart here.

Tests used:
[1] = Metabolic stability in human liver microsomes; assay type: in vitro ADME; conditions: for microsomal CLint: human, human liver microsomes
[2] = system: Caco-2 cell model; experiment: Caco-2 permeability; assay type: in vitro ADME
[3] = Caco-2 permeability; assay type: in vitro ADME; conditions: human, Caco-2
[4] = In vivo ADME/plasma pharmacokinetics in male CD1 mice
Protocol: FIG. 8 is a graph showing plasma pharmacokinetics of VMY-BC-1 in vivo. Concentrations are expressed as the mean±SEM.
In vivo ADME characteristics were determined in male CD1 mice following VMY-BC-1 administration at 1 mg/kg intravenously and 25 mg/kg and 100 mg/kg orally (FIG. 8). […] Sustained oral absorption following the 100 mg/kg oral administration indicated solubility was not limited oral absorption.

[5] = molecular target: T1, CYP1A2 (Homo sapiens, UniProt P05177); experiment: CYP inhibition in pooled human liver microsomes; assay type: in vitro ADME
T1 construct: from tissue; host or cells: pooled human liver microsomes
T1 sequence (P05177 whole entry): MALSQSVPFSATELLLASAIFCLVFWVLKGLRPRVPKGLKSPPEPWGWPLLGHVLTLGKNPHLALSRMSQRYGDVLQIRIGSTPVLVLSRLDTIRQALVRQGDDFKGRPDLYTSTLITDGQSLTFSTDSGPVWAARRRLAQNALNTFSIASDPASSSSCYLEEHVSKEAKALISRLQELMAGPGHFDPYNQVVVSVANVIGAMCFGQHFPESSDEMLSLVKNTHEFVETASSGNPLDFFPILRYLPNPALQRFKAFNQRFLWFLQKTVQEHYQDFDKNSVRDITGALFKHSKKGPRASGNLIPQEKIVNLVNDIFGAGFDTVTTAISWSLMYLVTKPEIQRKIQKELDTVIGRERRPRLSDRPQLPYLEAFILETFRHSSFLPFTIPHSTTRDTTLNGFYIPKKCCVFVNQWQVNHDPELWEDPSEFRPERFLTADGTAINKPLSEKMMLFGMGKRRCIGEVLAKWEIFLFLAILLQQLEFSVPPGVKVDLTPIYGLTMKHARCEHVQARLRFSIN

[6] = Mouse plasma protein binding (in vitro binding study); assay type: in vitro ADME, CD1 mouse
Protocol: (§1) Free drug fraction in brain and plasma compartment was determined in vitro (Table 7). Brain to plasma (B/P) ratio was also determined in vivo (Table 8).

[7] = system: proteins of MDA-MB-1 cells; experiment: Thermal proteome profiling (TPP) for binding proteins
Protocol: To further elucidate targets that activate the above signaling mechanisms, thermal proteome profiling (TPP) was used to identify binding proteins (Franken et al., Nat. Protoc. 10:1567-1593, 2015; Miettinen et al., EMBO J. 37:e98359, 2018) (FIG. 5A). TPP enables an unbiased assessment of the proteins […] bound to VMY-BC-1 on a proteome-wide scale. Cell lysates were made from MDA-MB-1 cells treated with vehicle or 10 μM VMY-BC-1 for 24 hours. Lysates were heated at different temperatures for 3 minutes in a thermal cycler. Equal amounts of protein were digested, labeled with TMT 10-plex and analyzed by mass spectrometry. The fold-changes in protein abundances were computed relative to the lowest temperature in the temperature set. After a normalization, melting curves were fitted to the fold-changes of each individual protein. The thermal stability of proteins affected by VMY-BC-1 treatment was calculated using the differences between melting points from control for each protein. From the 5,634 proteins screened, 10 target proteins were identified that bound VMY-BC-1: LIMK1, ATM, CDLK5, ULK1, WNK1, PP2C, AK1, IKBKAP, Q53E18, and HDAC1 (FIG. 5B).

[8] = Brain pharmacokinetics in mice; assay type: in vivo
Protocol: Pharmacokinetics of VMY-BC-1 in the brain were assessed in mice administered 25 mg/kg VMY-BC-1 p.o. (Table 6).
as §1

[9] = system: NHA; experiment: Normal cell viability, Alamar blue, 72 hours; assay type: cell-based; conditions: normal cell line
Protocol: (§2) The effect of VMY-BC-1 was tested on a panel of GBM cell lines. […] In this study 100 μM was the highest drug concentration used, with 3-fold dilution for a 10 dose response curve.

[10] = Normal cell viability, Alamar blue, 72 hours; assay type: cell-based; conditions: MRCS, normal cell line
Protocol: as §2

[11] = system: MDA-MB-231 TNBC cells; experiment: Growth of MDA-MB-231 TNBC cells; assay type: cell-based; conditions: 1%, 5% or 10% serum
Protocol: FIGS. 2A and 2B are graphs showing the effect of VMY-BC-1 on TNBC cells. […] The percentage of cells crossing the chamber is presented as the mean±SEM. *P<0.05.
Effect of VMY-BC-1 on Triple Negative Breast Cancer Cell Lines A trans-stilbene boronic acid analog, VMY-BC-1, was tested against a TNBC cell line.

[12] = molecular target: T2, CYP3A4 (Homo sapiens, UniProt P08684); experiment: CYP inhibition in pooled human liver microsomes; assay type: in vitro ADME
T2 construct: from tissue; host or cells: pooled human liver microsomes
T2 sequence (P08684 2-503): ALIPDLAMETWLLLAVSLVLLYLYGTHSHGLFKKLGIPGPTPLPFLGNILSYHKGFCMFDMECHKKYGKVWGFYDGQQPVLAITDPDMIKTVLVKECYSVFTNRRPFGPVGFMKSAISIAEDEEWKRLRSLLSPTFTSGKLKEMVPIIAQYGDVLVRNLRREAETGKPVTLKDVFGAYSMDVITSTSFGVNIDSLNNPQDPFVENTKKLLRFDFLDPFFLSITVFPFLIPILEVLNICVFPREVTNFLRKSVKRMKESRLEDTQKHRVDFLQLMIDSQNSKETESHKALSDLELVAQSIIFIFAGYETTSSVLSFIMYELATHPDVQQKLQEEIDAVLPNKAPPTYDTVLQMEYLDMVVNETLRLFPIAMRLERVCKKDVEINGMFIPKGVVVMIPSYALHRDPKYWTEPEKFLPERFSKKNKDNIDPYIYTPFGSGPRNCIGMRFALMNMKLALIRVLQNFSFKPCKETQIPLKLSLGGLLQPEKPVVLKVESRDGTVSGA

[13] = Pharmacokinetics of BC-2 and BC-3 in mouse plasma and brain; assay type: in vivo, mice; conditions: mouse, in vivo, po, 5 mg/kg
Protocol: Pharmacokinetics were assessed in mice administered a single oral dose of 5 mg/kg of the indicated compound (Tables 9 and 10).

[14] = molecular target: T3, CYP2C19 (Homo sapiens, UniProt P33261); experiment: CYP inhibition in pooled human liver microsomes; assay type: in vitro ADME
T3 construct: from tissue; host or cells: pooled human liver microsomes
T3 sequence (P33261 whole entry): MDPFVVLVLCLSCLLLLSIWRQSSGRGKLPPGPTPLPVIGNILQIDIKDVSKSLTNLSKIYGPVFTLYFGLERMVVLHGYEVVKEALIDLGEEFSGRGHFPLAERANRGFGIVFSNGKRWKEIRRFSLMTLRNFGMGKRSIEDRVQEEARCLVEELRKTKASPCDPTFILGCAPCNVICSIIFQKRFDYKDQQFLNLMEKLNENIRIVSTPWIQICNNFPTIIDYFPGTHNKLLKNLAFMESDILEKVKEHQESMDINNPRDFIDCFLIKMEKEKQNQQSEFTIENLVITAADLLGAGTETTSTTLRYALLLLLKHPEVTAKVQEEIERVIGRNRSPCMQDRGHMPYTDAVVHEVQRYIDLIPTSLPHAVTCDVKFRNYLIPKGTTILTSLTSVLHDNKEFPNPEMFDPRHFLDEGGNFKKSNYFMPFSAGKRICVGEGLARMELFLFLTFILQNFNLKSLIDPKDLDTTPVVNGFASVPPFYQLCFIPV

[15] = 25 mg/kg single dose P.O., 0.00 h
[16] = 25 mg/kg single dose P.O., 12.00 h
[17] = 25 mg/kg single dose P.O., 24.00 h

For COc1ccc(/C=C/c2cc(OC)cc(B(O)O)c2)cc1 [VMY-BC-1], the “Remaining at the end of incubation in human liver microsomes” value ([1]; 30 min incubation) was 40%, the microsomal CLint ([1]; Table 3, read-out: Metabolic stability in human liver microsome (CLint)) was 41.3 µL/min/mg and the microsomal CLint ([1]; read-out: Intrinsic clearance in human liver microsomes) was 43 µL/min/mg. For the same compound, the “Permeability in Caco-2 cell model” value [2] was “high permeability”, the efflux ratio [3] was 0.4 and the Papp A→B ([3]; A-B) was 510 nm/s. For the same compound, the Papp B→A ([3]; B-A) was 200 nm/s, the Plasma clearance ([4]; 1 mg/kg intravenously) was 50 % of hepatic blood flow and the half-life ([4]; male, CD1, mouse, plasma, iv, 1 mg/kg intravenously, read-out: Elimination half-life (converted)) was ~1 h. The Vd ([4]; male, CD1, mouse, plasma, iv, 1 mg/kg intravenously, read-out: Volume of distribution) was 2.4 L/kg, the bioavailability ([4]; male, CD1, mouse, plasma, 25 mg/kg oral, read-out: Oral suspension bioavailability F (%)) was > 100% and the Cmax ([4]; male, CD1, mouse, plasma, oral, dose not given, read-out: Mean maximum concentration (Cmax)) was 3.06 µg/mL. The Tmax ([4]; male, CD1, mouse, plasma, oral, read-out: Time to maximum concentration (Tmax)) was 1 to 2 h, the “Increase in Cmax” value ([4]; oral dose 25 to 100 mg/kg) was “approximately 5 fold” and the “Increase in plasma exposures” value ([4]; oral dose 25 to 100 mg/kg) was ~7 fold. The pIC50 [5] was 5.30 and 5.33, the recovery ([6]; CD1, mouse, mouse plasma) was 89.3% and the fraction unbound ([6]; CD1, mouse, plasma, Table 3) was 0.265. The “Plasma protein binding” value ([6]; CD1 mouse plasma) was “moderate plasma protein binding”, the “Bound (%)” value ([6]; Mouse Plasma) was 73.48% and the “fu (%)” value ([6]; Mouse Plasma) was 26.52%. For the same compound, the “Target proteins identified that bound VMY-BC-1” value ([7]; 10 μM, 24 hours, 5,634 proteins screened) was 10, the “Fraction of bound protein” value ([7]; of 5,634 proteins screened) was 0.0017 fraction and the Mean Brain Concentration [8, 15] was 0 ng/g. For the same compound, the Mean Plasma Concentration [8, 15] was 0 µg/mL, the “Mean Brain Concentration” value ([8]; 25 mg/kg single dose P.O., 0.50 h, in ng/g) was 40017.53 and the “Mean Plasma Concentration” value ([8]; 25 mg/kg single dose P.O., 0.50 h, in ng/mL) was 5273.66. The “Mean Brain Concentration” value ([8]; 25 mg/kg single dose P.O., 1.00 h, in ng/g) was 28802.80, the “Mean Plasma Concentration” value ([8]; 25 mg/kg single dose P.O., 1.00 h, in ng/mL) was 5486.04 and the “Mean Brain Concentration” value ([8]; 25 mg/kg single dose P.O., 3.00 h, in ng/g) was 6158.13. For the same compound, the “Mean Plasma Concentration” value ([8]; 25 mg/kg single dose P.O., 3.00 h, in ng/mL) was 1945.44, the “Mean Brain Concentration” value ([8]; 25 mg/kg single dose P.O., 6.00 h, in ng/g) was 1948.79 and the “Mean Plasma Concentration” value ([8]; 25 mg/kg single dose P.O., 6.00 h, in ng/mL) was 889.87. For the same compound, the Mean Brain Concentration [8, 16] was 0 ng/g, the Mean Plasma Concentration [8, 16] was 0 µg/mL and the Mean Brain Concentration [8, 17] was 0 ng/g. For the same compound, the Mean Plasma Concentration [8, 17] was 0 µg/mL, the AUCextrap ([8]; Brain, oral 25 mg/kg) was 4.74% and the AUCinf ([8]; Brain, oral 25 mg/kg) was 78032.82 ng·h/g. The AUClast ([8]; Brain, oral 25 mg/kg) was 74330.76 ng·h/g, the AUCextrap ([8]; Plasma, oral 25 mg/kg) was 13.75% and the Kp at 0 h ([8]; mouse, brain and plasma, oral, 25 mg/kg single dose P.O., 0.00 h, read-out: Brain to Plasma Ratio) was 0. The Kp at 12 h ([8]; mouse, brain and plasma, oral, 25 mg/kg single dose P.O., 12.00 h, read-out: Brain to Plasma Ratio) was 0, the Kp at 24 h ([8]; mouse, brain and plasma, oral, 25 mg/kg single dose P.O., 24.00 h, read-out: Brain to Plasma Ratio) was 0 and the Kp ([8]; mouse, brain and plasma, po, 25 mg/kg p.o., read-out: Cmax relative to plasma) was 7. For the same compound, the Kp at 0.5 h ([8]; mouse, brain and plasma, po, 25 mg/kg single dose P.O., 0.50 h, read-out: Brain to Plasma Ratio) was 7.59, the Kp at 1 h ([8]; mouse, brain and plasma, po, 25 mg/kg single dose P.O., 1.00 h, read-out: Brain to Plasma Ratio) was 5.25 and the Kp at 3 h ([8]; mouse, brain and plasma, po, 25 mg/kg single dose P.O., 3.00 h, read-out: Brain to Plasma Ratio) was 3.17. For the same compound, the Kp at 6 h ([8]; mouse, brain and plasma, po, 25 mg/kg single dose P.O., 6.00 h, read-out: Brain to Plasma Ratio) was 2.19, the Cmax ([8]; mouse, Brain, oral 25 mg/kg) was 40000 ng/g and the MRT last ([8]; mouse, Brain, oral 25 mg/kg) was 1.48 h. It also gave a Tmax ([8]; mouse, Brain, oral 25 mg/kg) of 0.5 h, a half-life ([8]; mouse, Brain, oral 25 mg/kg) of 1.32 h and an AUC(0-inf) ([8]; mouse, Plasma, oral 25 mg/kg) of 18.2 µg·h/mL. It also gave an AUC(0-t) ([8]; mouse, Plasma, oral 25 mg/kg) of 15.7 µg·h/mL, a Cmax ([8]; mouse, Plasma, oral 25 mg/kg) of 5.49 µg/mL and an MRT last ([8]; mouse, Plasma, oral 25 mg/kg) of 1.96 h. The Tmax ([8]; mouse, Plasma, oral 25 mg/kg) was 1 h, the half-life ([8]; mouse, Plasma, oral 25 mg/kg) was 1.95 h and the pIC50 [9] was 4.58. For the same compound, the pIC50 [10] was 4.45, the “Growth of MDA-MB-231 TNBC cells” value [11] was “significantly inhibited growth” and the pIC50 ([12]; read-out: IC50 CYP 3A) was 4.00 to 4.15. The pIC50 ([12]; read-out: IC50 inhibition of CYP3A4MD2) was < 4.00, the pIC50 ([12]; read-out: IC50 inhibition of CYP3A4TST) was < 4.00 and the AUC(0-inf) [13] was 0.865 µg·h/mL. The “AUC(inf)” value [13] was 149000 ng·min/mL, the Cmax [13] was 578 ng/mL and 1560 ng/g and the “Concentration in brain vs plasma” value [13] was “higher concentration in brain than in plasma”. The Tmax [13] was 0.5 h, the concentration at 30 min [13] was 578 ng/mL and 1560 ng/g and the concentration at 60 min [13] was 470 ng/mL and 1400 ng/g. The concentration at 180 min [13] was 60 ng/mL and 169 ng/g, the Tmax ([13]; Tmax) was 0.5 h and the half-life ([13]; T½) was 0.733 h. It also gave a pIC50 [14] of 4.02.
